Assay results from paper PMC7684313, “In vitro and in vivo pharmacological activity of minor cannabinoids isolated from Cannabis sativa” (Scientific Reports, 2020).
Entries after “also recorded” stand apart in the source; their conditions may differ. Read-outs that look alike come from different tables or passages of the source. Marks after values point to notes of the source that are not given here.

Experiments:
hCB1R [1] = target: T1, hCB1R (Homo sapiens, UniProt P21554); assay: biochemical; assay type: binding
T1 construct: expressed in transfected cells; membranes
T1 sequence (P21554 whole entry): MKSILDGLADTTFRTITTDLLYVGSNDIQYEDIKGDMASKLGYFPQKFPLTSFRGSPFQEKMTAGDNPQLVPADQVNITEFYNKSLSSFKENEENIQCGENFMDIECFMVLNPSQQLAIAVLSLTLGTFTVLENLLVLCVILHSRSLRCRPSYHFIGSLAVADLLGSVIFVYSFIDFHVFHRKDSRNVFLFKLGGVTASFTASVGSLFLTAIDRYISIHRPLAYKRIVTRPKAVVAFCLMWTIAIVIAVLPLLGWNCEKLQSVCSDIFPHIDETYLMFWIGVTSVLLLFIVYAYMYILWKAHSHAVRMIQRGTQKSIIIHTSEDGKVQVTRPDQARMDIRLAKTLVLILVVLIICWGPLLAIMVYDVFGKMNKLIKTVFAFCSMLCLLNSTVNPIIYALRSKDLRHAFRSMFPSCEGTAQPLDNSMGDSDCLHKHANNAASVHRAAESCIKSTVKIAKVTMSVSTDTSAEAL

hCB1R [2] = target: T1, hCB1R; assay: cell-based; assay type: cell-based; conditions: for Emax: CHO, read-out: hCB1R Emax, inhibition of FSK-stimulated cAMP accumulation; for EC50: HitHunter CHO hCB1R cells, 90 min, 95% CI in brackets, read-out: hCB1R EC50, inhibition of FSK-stimulated cAMP accumulation
hCB1R [3] = target: T1, hCB1R; assay: cell-based; conditions: for Emax: CHO, read-out: hCB1R Emax, recruitment of βarrestin2; for EC50: PathHunter CHO hCB1R cells, 90 min, 95% CI in brackets, read-out: hCB1R EC50, recruitment of βarrestin2
hCB1R [4] = target: T1, hCB1R; assay: Ligand bias between cAMP inhibition and βarrestin2 recruitment at hCB1R (operational model); assay type: cell-based; conditions: ∆∆LogR > 0 bias for inhibition of cAMP, < 0 bias for βarrestin2; CP55,940 reference agonist
Description: (§1) Figure 8 Analysis of ligand bias for phytocannabinoids at hCB1R (a) and hCB2R (b).
(§2) Concentration–response curves (CRC) were fit using non-linear regression with variable slope (4 parameters) and used to calculate EC50, Emin, and Emax (GraphPad, Prism, v. 8.0). […] In vivo data are presented as % MPE for catalepsy (MPE = 60 s) and anti-nociception (MPE = 20 s), °C for body temperature, and distance travelled (m) and % time in the centre quadrant in 5 min for OFT. Post-hoc analyses were performed using Tukey’s (one-way ANOVA) test. Homogeneity of variance was confirmed using Bartlett’s test. All data were evaluated for possible outliers using Grubb’s test in GraphPad.

C57BL/6 mice [5] = assay: Locomotion in the open field test (OFT); assay type: in vivo
Description: (§3) Asterisk colour matches the treatment group assessed.
as §2

hCB2R [6] = target: T2, hCB2R (Homo sapiens, UniProt P34972); assay: biochemical
T2 sequence (P34972 whole entry): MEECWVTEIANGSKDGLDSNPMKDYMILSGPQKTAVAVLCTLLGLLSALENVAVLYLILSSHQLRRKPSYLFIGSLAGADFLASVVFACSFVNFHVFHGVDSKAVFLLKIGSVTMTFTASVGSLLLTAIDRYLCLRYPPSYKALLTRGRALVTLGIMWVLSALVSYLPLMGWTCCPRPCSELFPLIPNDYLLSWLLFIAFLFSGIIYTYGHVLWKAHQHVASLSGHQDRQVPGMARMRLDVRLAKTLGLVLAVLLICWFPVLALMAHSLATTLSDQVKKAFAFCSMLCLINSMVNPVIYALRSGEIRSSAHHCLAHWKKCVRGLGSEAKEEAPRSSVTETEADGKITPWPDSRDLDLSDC

hCB2R [7] = target: T2, hCB2R; assay: hCB2R-dependent inhibition of FSK-stimulated cAMP accumulation (HitHunter CHO cells); assay type: cell-based; design: expressed in transfected cells; membranes; conditions: for Emax: CHO
hCB2R [8] = target: T2, hCB2R; assay: hCB2R-dependent recruitment of βarrestin2 (PathHunter CHO cells); assay type: cell-based; design: expressed in transfected cells; membranes; conditions: for Emax: CHO; for activity in hCB2R βarrestin2 recruitment, in words: 0.1 nM–10 µM, relative to CP55,940
hCB2R [9] = target: T2, hCB2R; assay: Ligand bias between cAMP inhibition and βarrestin2 recruitment at hCB2R (operational model); assay type: cell-based; design: expressed in transfected cells; membranes; conditions: ∆∆LogR > 0 bias for inhibition of cAMP, < 0 bias for βarrestin2; CP55,940 reference agonist
Description: as §1, §2

hCB2R [10] = target: T2, hCB2R; assay: [^3H]CP55,940 displacement from hCB2R CHO cell membranes; conditions: for hCB2R Emin: bottom of the concentration–response curve of [^3H]CP55,940 displacement, %CP55,940 response, mean ± SEM; for extent of [^3H]CP55,940 displacement from hCB2R, in words: concentration range 0.1 nM–10 µM
C57BL/6 mice [11] = assay: Catalepsy in the ring holding assay (tetrad); assay type: in vivo; conditions: MPE 60 s = 100%
Description: as §3, §2

C57BL/6 mice [12] = assay: Body temperature (tetrad); assay type: in vivo
Description: as §3, §2

C57BL/6 mice [13] = assay: Nociception in the tail flick assay (tetrad); assay type: in vivo
Description: as §3, §2

C57BL/6 mice [14] = assay: Time in the centre quadrant of the OFT (anxiety-like behaviour); assay type: in vivo; conditions: 3 and 10 mg/kg i.p.; 1 h post-injection
Description: as §3, §2

C57BL/6 mice [15] = assay: Tetrad of assays, overall; conditions: between 1 and 10 mg/kg
[16] = dose range 0.1–10 mg/kg i.p., 15 min post-injection

| SMILES | Ki (hCB1R [1]) | extent of [^3H]CP55,940 displacement from hCB1R, in words (hCB1R [1]) | hCB1R Emin (hCB1R [1]) | Emax (hCB1R [2]) | EC50 (hCB1R [2]) | Emax (hCB1R [3]) | EC50 (hCB1R [3]) | Ki (hCB2R [6]) | Emax (hCB2R [7]) | Emax (hCB2R [8]) | ligand bias at hCB2R (∆∆LogR), in words (hCB2R [9]) | hCB2R Emin (hCB2R [10]) | extent of [^3H]CP55,940 displacement from hCB2R, in words (hCB2R [10]) | cataleptic response, % of maximum possible effect (MPE) (C57BL/6 mice [11]; 10 mg/kg i.p.) | anti-nociceptive effect (tail flick latency), in words (C57BL/6 mice [13]; [16]) | activity in hCB2R βarrestin2 recruitment, in words (hCB2R [8]) | further results |
| --- | --- | --- | --- | --- | --- | --- | --- | --- | --- | --- | --- | --- | --- | --- | --- | --- | --- |
| C=C(C)[C@@H]1CCC(C)=C[C@H]1c1c(O)cc(CCCCC)c(C(=O)O)c1O [CBDa, cannabidiolic acid] | > 10 µM | weakly displaced [^3H]CP55,940 at concentrations ≥ 1 µM | 96 ± 6.5*^ % | 22 ± 1.1% | 0.03 µM | 0.1 ± 0.11% | > 10 µM | 0.012 µM | 32 ± 4.2% | 18 ± 2.5% | bias for inhibition of cAMP relative to βarrestin2 | 30 ± 7.8 % | displaced [^3H]CP55,940 from hCB2R to an extent that was not different from CP55,940 | – | – | – | ligand bias at hCB1R (∆∆LogR), in words (hCB1R [4]): bias for the inhibition of cAMP relative to βarrestin2; total locomotion in the OFT, in words (C57BL/6 mice [5]; 10 mg/kg i.p., 1 h post-injection): Hypolocomotive responses; EC50 (hCB2R [7]; HitHunter CHO hCB2R cells, 90 min, 95% CI in brackets, read-out: hCB2R EC50, inhibition of FSK-stimulated cAMP accumulation): 0.14 µM; EC50 (hCB2R [8]; PathHunter CHO hCB2R cells, 90 min, 95% CI in brackets, read-out: hCB2R EC50, recruitment of βarrestin2): > 10 µM |
| CCCCCc1cc(O)c2c(c1)OC(C)(C)[C@@H]1CCC(C)=C[C@@H]21 [∆^9-THC, ∆^9-tetrahydrocannabinol, reference compound] | – | – | – | – | – | – | – | – | 76 ± 8.6% | 46 ± 4.9% | bias for inhibition of cAMP relative to βarrestin2 | 7.4 ± 4.4% | displaced [^3H]CP55,940 from hCB2R to an extent that was not different from CP55,940 | 100% | dose-dependent increase in anti-nociceptive effects | modest agonist activity | cataleptic response, % of maximum possible effect (MPE) (C57BL/6 mice [11]; 3 mg/kg i.p.): 17%; effect on body temperature, in words (C57BL/6 mice [12]; 3 and 10 mg/kg i.p.): decreased body temperature |
| CCCc1cc(O)c2c(c1)OC(C)(C)[C@@H]1CCC(C)=C[C@@H]21 [THCV, ∆^9-tetrahydrocannabivarin] | 0.022 µM | partially displaced | 54 ± 4.1*^ % | 59 ± 3.9% | 0.26 µM | 0.05 ± 2.1% | > 10 µM | 0.047 µM | 79 ± 1.3% | 50 ± 6.8% | – | 27 ± 9.5% | displaced [^3H]CP55,940 from hCB2R to an extent that was not different from CP55,940 | 39% | dose-dependent increase in anti-nociceptive effects | demonstrable efficacy at hCB2R in the βarrestin2 recruitment assay, but with very low potency; also recorded: agonist | agonist activity in hCB1R cAMP inhibition, in words (hCB1R [2]): weak partial agonist response; effect on body temperature, in words (C57BL/6 mice [12]; 10 mg/kg i.p.): decreased body temperature; also recorded: hypothermic; anti-nociceptive effect (tail flick latency), in words (C57BL/6 mice [13]; 3 and 10 mg/kg i.p.): anti-nociceptive; total locomotion in the OFT, in words (C57BL/6 mice [5]; 3 and 10 mg/kg i.p.): hypolocomotive; time in the central quadrant of the OFT (modelled anxiolytic effect), in words (C57BL/6 mice [14]): anxiolytic; EC50 (hCB2R [7]): 0.28 µM; agonist activity in hCB2R cAMP inhibition, in words (hCB2R [7]; 0.1 nM–10 µM, relative to CP55,940): agonist; EC50 (hCB2R [8]): > 10 µM |
| C=C(C)[C@@H]1CCC(C)=C[C@H]1c1c(O)cc(CCCCC)cc1O [CBD, cannabidiol, reference compound] | – | weakly displaced [^3H]CP55,940 at concentrations ≥ 1 µM | – | 26 ± 1.6% | – | 1 ± 1.6% | – | – | 61 ± 2.3% | 23 ± 2.8% | – | 54 ± 9.3*^ % | – | – | – | modest agonist activity | effects in the tetrad of assays, in words (C57BL/6 mice [15]): no effects |
